Source: patent US12459951B2, “Compounds that interact with RAS superfamily proteins for treatment of cancers, inflammatory diseases, rasopathies, and fibrotic disease” (SHY Therapeutics, LLC, priority 2022, dated 2025)
Where a name gives a salt, the structure may show the parent alone.

How the values were obtained:
[1] = test system: MiaPaca-2 (expressing KRAS G12C mutant); test: Proliferation Assay (Cell Viability Assay); assay type: cell-based; settings: Homo sapiens, MIA PaCa-2; read-out: Proliferation in MiaPaca-2: IC50
Protocol: Protocol for Proliferation Assay
This assay is referred to as the “Proliferation Assay” or “Cell Viability Assay” throughout this application.
Cell lines: Human tumor-derived cell lines were purchased from American Type Culture Collection. Human tumor-derived pancreatic cancer cell line MiaPaca-2 (expressing KRAS G12C mutant) and Panc-1 (expressing KRas G12D mutant), and Human non-small cell lung cancer (NSCLC) cell line A549 (expressing KRas G12S mutant) were grown in complete DMEM-High Glucose medium. Human colon cancer cell line SW-620 (expressing KRas G12V mutant) was grown in RPMI 1640 medium. All cell lines were supplemented with penicillin (100 U/mL), streptomycin (100 μg/mL), and 10% heat-inactivated FBS at 37° C. in a humidified incubator with 5% CO2.
(§1) Method: Cells were plated at 2000 to 5000 cells/well density in 96-wells plate and cultured overnight. Small molecules to be tested were added to the cells in the final concentration of 10 μM in the presence of 0.3% DMSO and 10% FBS and incubated for 2-4 days at 37° C. in a humidified incubator with 5% CO2. For IC50 value determination, serial dilutions of compounds were added to cells under the same conditions.
Assay: At the end of the incubation period, cell viability was determined using the CellTiter 96® Aqueous One Solution Cell Proliferation Assay according to manufacturer specifications (Promega, Madison, WI). The percentage of small molecules inhibition of cellular proliferation was calculated from raw data.
Cell lines: these Human tumor-derived cell lines were purchased from American Type Culture Collection. Human tumor-derived pancreatic cancer cell line MiaPaca-2 (expressing KRAS G12C mutant) and Panc-1 (expressing KRas G12D mutant), and Human non-small cell lung cancer (NSCLC) cell line A549 (expressing KRas G12S mutant), and Human melanoma cell line A375 (wild type Kras) were grown in complete DMEM-High Glucose medium. Human tumor-derived pancreatic cancer cell lines SU86.86 (expressing KRas G12D mutant), BxPC3 (expressing wild type K-Ras), and Human non-small cell lung cancer (NSCLC) cell lines NCI-H441 (expressing KRas G12S mutant), NCI-H1975 (expressing wild type KRas), NCI-H358 (expressing KRas G12C mutant), NCI-H1299 (expressing NRas Q61H mutant), and Human colon cancer cell line SW-620 (expressing KRas G12V mutant), Human triple negative breast cancer cell line HCC-1806 (expressing wild type KRas), and Human tumor-derived multiple myeloma cell line MM.1R (expressing wild type KRAS), were grown in RPMI 1640 medium. Human tumor-derived breast cancer cell line BT-549 (expressing wild type KRAS) was grown in RPMI 1640 medium in the presence of 11.8U insulin. Human tumor-derived pancreatic cancer cell line HPAF-II (expressing KRas G12D mutant), Human triple negative breast cancer cell line BT-20 (expressing wild type KRas), and Human colon cancer cell line LS123 (expressing KRas G12S mutant), were grown in EMEM medium. Human tumor-derived pancreatic cancer cell line CF-PAC1 (expressing KRas G12V mutant) was frown in IMDM medium, and Human colon cancer cell line HT29 (expressing wild type KRas) was grown in McCoy's 5A medium. The colon cancer cell line GP2d (expressing KRas G12D mutant) was purchased from MilliporeSigma and grown in DMEM-High Glucose medium. All cell lines were supplemented with penicillin (100 U/mL), streptomycin (100 μg/mL), and 10% heat-inactivated FBS at 37° C. in a humidified incubator with 5% CO2.
as §1, with “that were” for “to be”, “FBS,” for “FBS”

KRas G12D mutant = test: Ras GTP Binding Domain Inhibition Assay (Ras Superfamily Assay); settings: 20 μM compound; for KRas G12D mutant + SOS: % inh.: with SOS; for KRas G12D mutant: % inh.: without SOS
Excerpt: (§2) Biological Example 3: Ras GTP Binding Domain Inhibition Assay
(§3) The assays described in Example 3 are collectively referred to as the “Ras Superfamily Assay” throughout this application.
(§4) A Ras Superfamily Activity Assay (as disclosed in International Application No. PCT/US2018/038613, filed Jun. 20, 2018, which is incorporated by reference in its entirety) was used as a specific assay to evaluate compounds against the following for the following Ras Superfamily proteins: KRas wild type, KRas Q61H mutant, KRas G12C mutant, KRas G12D mutant, Rac-1, and Rho-A.
(§5) • 25 mM Tris-HCl, pH 7.4 • 27 mM KCl • 137 mM NaCl • 1 mM MgCl2 • 1 mM DTT Buffer-II: • 50 mM Tris-HCl, pH 7.0 • 1 mM MgCl2 • 1 mM DTT
(§6) The small GTPases proteins: KRas wild type. KRas Q61H mutant, KRas G12C mutant, KRas G12D mutants, Rac-1, and Rho-A were expressed as His-tagged proteins. In addition, the Guanosine nucleotide Exchange Factor (GEF) Sos protein (residues 556-1049) was expressed as a His-tagged protein. In cells, the guanine nucleotide exchange factor Sos protein promotes activation of Ras proteins by stimulating an exchange of GDP for GTP. The inclusion of Sos to the Ras GTP binding domain inhibition assay may be considered as an alternative representation of physiological cellular conditions for evaluating the inhibitory activity of some of the tested small molecules.
(§7) For the assay, all purified small GTPases proteins were diluted in Buffer-I or Buffer-II to a final concentration of 10-30 μg/mL. 200 μL of each diluted protein was added to a nickel-coated 96-well plate and incubated overnight at 4° C. Then the protein solution was discarded and 200 μL of Buffer-I or Buffer-II was added to each well in the presence of 1% DMSO. Compounds to be tested were added to the protein-coated wells at final concentration of 20 μM, and incubated for 3 hours at room temperature with and without 10-30 μg/mL of Sos added to the final hour of the incubation. When performing IC50 measurements a serial dilution of all tested concentrations was added. Then Cy3-GTP or Cy5-GTP was added to each well to a final concentration of 100 nM. The labeled GTP was incubated for 45 minutes at room temperature. Following GTP incubation, wells were washed 3× in Buffer-I or Buffer-II and 200 μL of Buffer-I or Buffer-II was added to each well. Following washes, the amount of bound labeled-GTP was measured using a SpectraMax M3 (Molecular Devices).

KRas wild type = test: as above; settings: 20 μM compound; for KRas wild type + SOS: % inh.: with SOS; for KRas wild type: % inh.: without SOS
Excerpt: as §2, §3, §4, §5, §6, §7

Rac-1 = biological target: T1, Rac-1 (Homo sapiens, UniProt P63000); test: as above; settings: read-out: Rac-1: % inh.
T1 construct: made in house
Excerpt: as §2, §3, §4, §5, §6, §7

Row | IC50 [1] | KRas G12D mutant + SOS: % inh. (KRas G12D mutant) | KRas G12D mutant: % inh. (KRas G12D mutant) | KRas wild type + SOS: % inh. (KRas wild type) | KRas wild type: % inh. (KRas wild type) | inhibition at 20 µM (Rac-1) | Structure (SMILES)
1 | < 150 nM | D (D = 76-100% inhibition) | D (D = 76-100% inhibition) | D (D = 76-100% inhibition) | D (D = 76-100% inhibition) | 76 to 100% | Cc1c(-c2ccn(C3CC3)n2)cn2nc(-c3nccn3C)nc(Nc3cc(OC(F)F)ccn3)c12 [Compound 139, 6-(1-Cyclopropyl-1H-pyrazol-3-yl)-N-(4-(difluoromethoxy)pyridin-2-yl)-5-methyl-2-(1-methyl-1H-imidazol-2-yl)pyrrolo[2,1-f][1,2,4]triazin-4-amine]
2 | > 1000 nM | 0 (0 = 0% inhibition) | A (A = 1-25% inhibition) | A (A = 1-25% inhibition) | A (A = 1-25% inhibition) | 1 to 25% | COc1cc(-c2cn3nc(-c4nccn4C)nc(N[C@@H]4CC[C@H](OC)C4)c3c2C)ccn1 (racemic) [Compound 164, rac N-((1R,3S)-3-Methoxycyclopentyl)-6-(2-methoxypyridin-4-yl)-5-methyl-2-(1-methyl-1H-imidazol-2-yl)pyrrolo[2,1-f][1,2,4]triazin-4-amine]
3 | < 150 nM | D (D = 76-100% inhibition) | D (D = 76-100% inhibition) | D (D = 76-100% inhibition) | D (D = 76-100% inhibition) | 76 to 100% | Cc1c(-c2cccnc2)cn2nc(-c3nccn3C)nc(Nc3ccncn3)c12 [Compound 156, 5-Methyl-2-(1-methyl-1H-imidazol-2-yl)-6-(pyridin-3-yl)-N-(pyrimidin-4-yl)pyrrolo[2,1-f][1,2,4]triazin-4-amine]
4 | < 150 nM | D (D = 76-100% inhibition) | D (D = 76-100% inhibition) | D (D = 76-100% inhibition) | D (D = 76-100% inhibition) | 76 to 100% | COCCOc1cc(Nc2nc(-c3nccn3C)nn3cc(-c4ccn(C(C)C)n4)c(C)c23)ncn1 [Compound 122, 6-(1-Isopropyl-1H-pyrazol-3-yl)-N-(6-(2-methoxyethoxy)pyrimidin-4-yl)-5-methyl-2-(1-methyl-1H-imidazol-2-yl)pyrrolo[2,1-f][1,2,4]triazin-4-amine]
5 | > 1000 nM | 0 (0 = 0% inhibition) | 0 (0 = 0% inhibition) | 0 (0 = 0% inhibition) | 0 (0 = 0% inhibition) | 0% | COc1cc(-c2cn3nc(-c4nccn4C)nc(N[C@@H]4CC[C@@H](OC)C4)c3c2C)ccn1 (racemic) [Compound 163, rac N-((1R,3R)-3-Methoxycyclopentyl)-6-(2-methoxypyridin-4-yl)-5-methyl-2-(1-methyl-1H-imidazol-2-yl)pyrrolo[2,1-f][1,2,4]triazin-4-amine]

The next lines start with the compound.

Row | Structure (SMILES) | IC50 [1] | KRas G12D mutant + SOS: % inh. (KRas G12D mutant) | KRas G12D mutant: % inh. (KRas G12D mutant) | KRas wild type + SOS: % inh. (KRas wild type) | KRas wild type: % inh. (KRas wild type) | inhibition at 20 µM (Rac-1)
6 | CO[C@H]1C[C@H](Nc2nc(-c3nccn3C)nn3cc(-c4ccn(C)n4)c(C)c23)C1 [Compound 103, N-((1r,3r)-3-Methoxycyclobutyl)-5-methyl-2-(1-methyl-1H-imidazol-2-yl)-6-(1-methyl-1H-pyrazol-3-yl)pyrrolo[2,1-f][1,2,4]triazin-4-amine hydrochloride salt] | > 1000 nM | B (B = 26-49% inhibition) | B (B = 26-49% inhibition) | A (A = 1-25% inhibition) | B (B = 26-49% inhibition) | 1 to 25%
7 | Cc1c(-c2ccn(C3CC3)n2)cn2nc(-c3nccn3C)nc(Nc3cc(OCCCO)ccn3)c12 [Compound 149, 3-((2-((6-(1-Cyclopropyl-1H-pyrazol-3-yl)-5-methyl-2-(1-methyl-1H-imidazol-2-yl)pyrrolo[2,1-f][1,2,4]triazin-4-yl)amino)pyridin-4-yl)oxy)propan-1-ol] | 510 to 1000 nM | D (D = 76-100% inhibition) | D (D = 76-100% inhibition) | D (D = 76-100% inhibition) | D (D = 76-100% inhibition) | 76 to 100%
8 | Cc1c(-c2ccn(C)n2)cn2nc(-c3nccn3C)nc(Nc3nnco3)c12.Cl [Compound 119, N-(5-Methyl-2-(1-methyl-1H-imidazol-2-yl)-6-(1-methyl-1H-pyrazol-3-yl)pyrrolo[2,1-f][1,2,4]triazin-4-yl)-1,3,4-oxadiazol-2-amine hydrochloride salt] | 510 to 1000 nM | B (B = 26-49% inhibition) | C (C = 50-75% inhibition) | A (A = 1-25% inhibition) | C (C = 50-75% inhibition) | 26 to 49%
9 | Cc1c(-c2ccn(C)n2)cn2nc(-c3nccn3C)nc(Nc3ccncn3)c12.Cl [Compound 116, 5-Methyl-2-(1-methyl-1H-imidazol-2-yl)-6-(1-methyl-1H-pyrazol-3-yl)-N-(pyrimidin-4-yl)pyrrolo[2,1-f][1,2,4]triazin-4-amine hydrochloride salt] | < 150 nM | C (C = 50-75% inhibition) | C (C = 50-75% inhibition) | D (D = 76-100% inhibition) | C (C = 50-75% inhibition) | 50 to 75%
